In patent publication US20230131427A1, “FUNGICIDAL COMPOSITIONS” (SYNGENTA CROP PROTECTION AG, priority 2020, published 2023):
Read-outs that look alike come from different tables or passages of the source.

How the values were obtained:
[1] = test system: Glomerella lagenarium syn. Colletotrichum lagenarium; experiment: Example B1: mixtures, preventative activity against Glomerella lagenarium syn. Colletotrichum lagenarium, liquid culture; format: cell-based; conditions: component B alone; for inhibition at 0.1 ppm / inhibition at 0.3 ppm: Colletotrichum orbiculare, read-out: Activity (%) B
Text: (§1) This occurs whenever the action of an active ingredient combination is greater than the sum of the actions of the individual components. The action to be expected E for a given active ingredient combination obeys the so-called COLBY formula and can be calculated as follows (COLBY, S. R. “Calculating synergistic and antagonistic responses of herbicide combination”. Weeds, Vol. 15, pages 20-22; 1967):
(§2) If the action actually observed (O) is greater than the expected action (E), then the action of the combination is super-additive, i.e. there is a synergistic effect. In mathematical terms, synergism corresponds to a positive value for the difference of (O-E). In the case of purely complementary addition of activities (expected activity), said difference (O-E) is zero. A negative value of said difference (O-E) signals a loss of activity compared to the expected activity.
(§3) Conidia of the fungus from cryogenic storage were directly mixed into nutrient broth (PDB potato dextrose broth). A DMSO solution of the test compounds was placed into a microtiter plate (96-well format) and the nutrient broth containing the fungal spores was added to it.
(§4) Fungicidal activity was evaluated on a 100-0 scale (100=no disease growth; 0=well completely covered by mycelium).

Phakopsora pachyrhizi = experiment: Example B5: preventative activity against Phakopsora pachyrhizi (soybean rust), whole soybean plants sprayed, leaf disks inoculated; format: in vivo; conditions: for inhibition at 225 g/ha / inhibition at 450 g/ha / inhibition at 45 g/ha / inhibition at 90 g/ha / inhibition at 22.5 g/ha / inhibition at 2.25 g/ha / inhibition at 4.5 g/ha / inhibition at 18 g/ha: Phakopsora pachyrhizi, foliar
Protocol: Whole soybean plants are treated with the recited active ingredients 4 weeks after planting. 1 day after spraying leaf disks are cut from the first trifoliate leaf. Five repetitions at each rate are conducted. The leaf disks are inoculated with Phakopsora pachyrhizi (Asian soybean rust) one day after treatment.
Evaluation of the leaf disks is conducted 11 to 14 days after inoculation and the activity is derived from the relation of the treated vs untreated, infested check (100=no disease, no damage to the leaf, 0=high infestation, leaf damaged heavily). The rates of the active ingredients used are given in the tables as g active ingredient (a.i.)/ha.

Septoria tritici = experiment: Example B3: mixtures, preventative activity against Septoria tritici (leaf blotch), liquid culture; format: cell-based; conditions: component B alone
Text: as §1, §2, §3, §4

Septoria glycines = experiment: Example B2: mixtures, preventative activity against Septoria glycines (brown spot), liquid culture; format: cell-based; conditions: component B alone
Text: as §1, §2
as §3, with “fungus harvested” for “fungus”, “a fresh culture grown on artificial media,” for “cryogenic storage”
as §4

[2] = Zymoseptoria tritici, 0.1 ppm, 100-0 scale, read-out: Activity (%) B
[3] = read-out: Observed Activity (% of untreated) against Phakopsora pachyrhizi
[4] = read-out: Observed Activity (%) (% of untreated) against Phakopsora pachyrhizi
[5] = Septoria glycines, 0.1 ppm, 100-0 scale, read-out: Activity (%) B
[6] = Septoria glycines, 0.3 ppm, 100-0 scale
[7] = active ingredient alone, 22.5 g/ha, read-out: Observed Activity (%) (% of untreated)
[8] = active ingredient alone, 45 g/ha, read-out: Observed Activity (%) (% of untreated)
[9] = active ingredient alone, 90 g/ha, read-out: Observed Activity (%) (% of untreated)
[10] = applied alone, 22.5 g/ha, read-out: Observed Activity (% of untreated) against Phakopsora pachyrhizi
[11] = applied alone, 45 g/ha, read-out: Observed Activity (% of untreated) against Phakopsora pachyrhizi
[12] = applied alone, 90 g/ha, read-out: Observed Activity (% of untreated) against Phakopsora pachyrhizi

## S1SSSSSSS1 [sulphur]
[1]; 0.1 ppm
  inhibition at 0.1 ppm: 0%
[1]; 0.3 ppm
  inhibition at 0.3 ppm: 0%

## CC(O)(Cn1cncn1)c1ccc(Oc2ccc(Cl)cc2)cc1C(F)(F)F (stereo not drawn) [mefentrifluconazole, reference compound]
Phakopsora pachyrhizi; applied alone, 22.5 g/ha
  Observed Activity (% of untreated) against Phakopsora pachyrhizi: 1%
  Observed Activity (%) (% of untreated) against Phakopsora pachyrhizi: 1%
Phakopsora pachyrhizi; applied alone, 45 g/ha
  Observed Activity (% of untreated) against Phakopsora pachyrhizi: 20%
  Observed Activity (%) (% of untreated) against Phakopsora pachyrhizi: 20%

## [Cl-].[Cu+2].[Cu+2].[OH-].[OH-].[OH-] [copper oxychloride, reference compound]
[1]; 0.1 ppm
  Activity (%) B: 0%
[1]; 0.3 ppm
  Activity (%) B: 0%
Phakopsora pachyrhizi; applied alone, 22.5 g/ha
  Observed Activity (% of untreated) against Phakopsora pachyrhizi: 2%
Phakopsora pachyrhizi; applied alone, 45 g/ha
  Observed Activity (% of untreated) against Phakopsora pachyrhizi: 5%

## CC(Cc1ccc(C(C)(C)C)cc1)CN1CCCCC1 (stereo not drawn) [Fenpropidin]
Phakopsora pachyrhizi; applied alone, 225 g/ha, read-out: Observed Activity (% of untreated) against Phakopsora pachyrhizi
  inhibition at 225 g/ha: 72%
Phakopsora pachyrhizi; applied alone, 225 g/ha, read-out: Observed Activity (%) (% of untreated) against Phakopsora pachyrhizi
  inhibition at 225 g/ha: 72%
Phakopsora pachyrhizi; applied alone, 450 g/ha, read-out: Observed Activity (% of untreated) against Phakopsora pachyrhizi
  inhibition at 450 g/ha: 77%
Phakopsora pachyrhizi; applied alone, 450 g/ha, read-out: Observed Activity (%) (% of untreated) against Phakopsora pachyrhizi
  inhibition at 450 g/ha: 77%

## Cn1cc(C(=O)Nc2ccccc2-c2cc(F)c(F)c(F)c2)c(C(F)F)n1 [fluxapyroxad, reference compound]
[1]; 0.1 ppm
  Activity (%) B: 0%
[1]; 0.3 ppm
  Activity (%) B: 0%
Phakopsora pachyrhizi; applied alone, 2.25 g/ha
  Observed Activity (% of untreated) against Phakopsora pachyrhizi: 8%
Phakopsora pachyrhizi; applied alone, 4.5 g/ha
  Observed Activity (% of untreated) against Phakopsora pachyrhizi: 7%
Phakopsora pachyrhizi; applied alone, 9 g/ha
  Observed Activity (% of untreated) against Phakopsora pachyrhizi: 66%

## CC(Cc1ccc(C(C)(C)C)cc1)CN1CCCCC1 (stereo not drawn) [fenpropidin]
Septoria tritici; [2]
  inhibition at 0.1 ppm: 0%
Septoria tritici; Zymoseptoria tritici, 0.3 ppm, 100-0 scale, read-out: Activity (%) B
  inhibition at 0.3 ppm: 0%

## CON(C(=O)c1cn(C)nc1C(F)F)C(C)Cc1c(Cl)cc(Cl)cc1Cl (stereo not drawn) [pydiflumetofen, reference compound]
[1]; 0.1 ppm
  Activity (%) B: 0%
[1]; 0.3 ppm
  Activity (%) B: 0%
Phakopsora pachyrhizi; applied alone, 22.5 g/ha
  Observed Activity (%) (% of untreated) against Phakopsora pachyrhizi: 28%
Phakopsora pachyrhizi; applied alone, 45 g/ha
  Observed Activity (%) (% of untreated) against Phakopsora pachyrhizi: 74%

## CC(C)c1ccc(Cl)cc1CN(C(=O)c1c(C(F)F)nn(C)c1F)C1CC1 [Isoflucypram]
Phakopsora pachyrhizi; applied alone, 2.25 g/ha
  Observed Activity (% of untreated) against Phakopsora pachyrhizi: 2%
Phakopsora pachyrhizi; applied alone, 4.5 g/ha
  Observed Activity (% of untreated) against Phakopsora pachyrhizi: 1%
Phakopsora pachyrhizi; applied alone, 9 g/ha
  Observed Activity (% of untreated) against Phakopsora pachyrhizi: 0%

## O=C(O)CNCP(=O)(O)O [Glyphosate]
Phakopsora pachyrhizi; [3]
  inhibition at 45 g/ha: 1%
  inhibition at 90 g/ha: 0%
Phakopsora pachyrhizi; [4]
  inhibition at 45 g/ha: 1%
  inhibition at 90 g/ha: 0%

## COc1ccnc(C(=O)N[C@@H](C)C(=O)O[C@@H](C)[C@H](c2ccc(F)cc2C)C(C)C)c1OCOC(C)=O [[(1S,2S)-2-(4-fluoro-2-methyl-phenyl)-1,3-dimethyl-butyl](2S)-2-[[3-(acetoxymethoxy)-4-methoxy-pyridine-2-carbonyl]amino]propanoate]
[1]; 0.1 ppm
  inhibition at 0.1 ppm: 20%
[1]; 0.3 ppm
  inhibition at 0.3 ppm: 70%

## CC(Cc1ccc(C(C)(C)C)cc1)CN1C[C@@H](C)O[C@@H](C)C1 (stereo partly drawn) [fenpropimorph]
Septoria glycines; [5]
  inhibition at 0.1 ppm: 20%
Septoria glycines; Septoria glycines, 0.1 ppm, read-out: Activity (%) B
  inhibition at 0.1 ppm: 20%
Septoria glycines; Septoria glycines, 0.3 ppm
  inhibition at 0.3 ppm: 50%
Septoria glycines; [6]
  inhibition at 0.3 ppm: 50%

## CC(C1CC1)C(O)(Cn1cncn1)c1ccc(Cl)cc1 (stereo not drawn) [cyproconazole, reference compound]
Septoria glycines; [5]
  inhibition at 0.1 ppm: 50%
Septoria glycines; Septoria glycines, 0.3 ppm
  inhibition at 0.3 ppm: 70%
Septoria glycines; [6]
  inhibition at 0.3 ppm: 70%
Septoria tritici; Zymoseptoria tritici, 72 h, 0.1 ppm, 72 hrs, 100=no disease growth, read-out: Activity (%) B
  inhibition at 0.1 ppm: 20%
Septoria tritici; Zymoseptoria tritici, 72 h, 0.3 ppm, 72 hrs, read-out: Activity (%) B
  inhibition at 0.3 ppm: 50%
Septoria tritici; [2]
  inhibition at 0.1 ppm: 20%
Phakopsora pachyrhizi; [7]
  inhibition at 22.5 g/ha: 15%
Phakopsora pachyrhizi; [8]
  inhibition at 45 g/ha: 69%
Phakopsora pachyrhizi; [9]
  inhibition at 90 g/ha: 84%
Phakopsora pachyrhizi; [10]
  inhibition at 22.5 g/ha: 15%
Phakopsora pachyrhizi; [11]
  inhibition at 45 g/ha: 69%
Phakopsora pachyrhizi; [12]
  inhibition at 90 g/ha: 84%

## CO/C=C(/C(=O)OC)c1ccccc1COc1cccc(C(F)(F)F)n1 [picoxystrobin]
[1]; 0.1 ppm
  Activity (%) B: 90%
[1]; 0.3 ppm
  Activity (%) B: 90%

## COC(=O)N(OC)c1ccccc1COc1ccn(-c2ccc(Cl)cc2)n1 [pyraclostrobin, reference compound]
Phakopsora pachyrhizi; active ingredient alone, 2.25 g/ha, read-out: Observed Activity (%) (% of untreated)
  inhibition at 2.25 g/ha: 0%
Phakopsora pachyrhizi; active ingredient alone, 4.5 g/ha, read-out: Observed Activity (%) (% of untreated)
  inhibition at 4.5 g/ha: 0%
Phakopsora pachyrhizi; active ingredient alone, 18 g/ha, read-out: Observed Activity (%) (% of untreated)
  inhibition at 18 g/ha: 13%
Phakopsora pachyrhizi; applied alone, 2.25 g/ha, read-out: Observed Activity (% of untreated) against Phakopsora pachyrhizi
  inhibition at 2.25 g/ha: 0%
Phakopsora pachyrhizi; applied alone, 4.5 g/ha, read-out: Observed Activity (% of untreated) against Phakopsora pachyrhizi
  inhibition at 4.5 g/ha: 0%
Phakopsora pachyrhizi; applied alone, 18 g/ha, read-out: Observed Activity (% of untreated) against Phakopsora pachyrhizi
  inhibition at 18 g/ha: 13%
Phakopsora pachyrhizi; applied alone, 9 g/ha
  Observed Activity (% of untreated) against Phakopsora pachyrhizi: 1%

## CC1(C)N=C(c2cnc3ccccc3c2)c2ccccc2C1(F)F [quinofumelin]
Septoria tritici; 0.1 ppm, 100-0 scale
  Activity (%) B: 0%
Septoria tritici; 0.3 ppm, 100-0 scale
  Activity (%) B: 0%

## CCC(=O)Oc1c(OC)ccnc1C(=O)N[C@@H](C)C(=O)O[C@@H](C)[C@@H](C)c1ccccc1C [[(1S,2S)-1-methyl-2-(o-tolyl)propyl](2S)-2-[(4-methoxy-3-propanoyloxy-pyridine-2-carbonyl)amino]propanoate, reference compound]
Septoria glycines; Septoria glycines, 0.03 ppm, 100-0 scale, read-out: Activity (%) B
  inhibition at 0.03 ppm: 0%
Septoria glycines; Septoria glycines, 0.06 ppm, 100-0 scale
  inhibition at 0.06 ppm: 0%
Septoria tritici; Zymoseptoria tritici, 72 h, 0.03 ppm, 72 hrs, read-out: Activity (%) B
  inhibition at 0.03 ppm: 50%
Septoria tritici; Zymoseptoria tritici, 72 h, 0.06 ppm
  inhibition at 0.06 ppm: 70%

## CO/C=C(/C(=O)OC)c1ccccc1Oc1cc(Oc2ccccc2C#N)ncn1 [azoxystrobin, reference compound]
Phakopsora pachyrhizi; active ingredient alone, 2.25 g/ha
  Observed Activity (%) (% of untreated): 0%
Phakopsora pachyrhizi; active ingredient alone, 4.5 g/ha
  Observed Activity (%) (% of untreated): 15%
Phakopsora pachyrhizi; active ingredient alone, 9 g/ha
  Observed Activity (%) (% of untreated): 23%
Phakopsora pachyrhizi; active ingredient alone, 18 g/ha
  Observed Activity (%) (% of untreated): 9%
Phakopsora pachyrhizi; applied alone, 2.25 g/ha
  Observed Activity (% of untreated) against Phakopsora pachyrhizi: 0%
Phakopsora pachyrhizi; applied alone, 4.5 g/ha
  Observed Activity (% of untreated) against Phakopsora pachyrhizi: 15%
Phakopsora pachyrhizi; applied alone, 9 g/ha
  Observed Activity (% of untreated) against Phakopsora pachyrhizi: 23%
Phakopsora pachyrhizi; applied alone, 18 g/ha
  Observed Activity (% of untreated) against Phakopsora pachyrhizi: 9%

## CC1COC(Cn2cncn2)(c2ccc(Oc3ccc(Cl)cc3)cc2Cl)O1 (stereo not drawn) [Difenoconazole]
Phakopsora pachyrhizi; [7]
  inhibition at 22.5 g/ha: 3%
Phakopsora pachyrhizi; [8]
  inhibition at 45 g/ha: 10%
Phakopsora pachyrhizi; [9]
  inhibition at 90 g/ha: 24%
Phakopsora pachyrhizi; [10]
  inhibition at 22.5 g/ha: 3%
Phakopsora pachyrhizi; [11]
  inhibition at 45 g/ha: 10%
Phakopsora pachyrhizi; [12]
  inhibition at 90 g/ha: 24%

## CC(C)C1C2CCC1c1c(NC(=O)c3cn(C)nc3C(F)F)cccc12 (stereo not drawn) [isopyrazam]
Septoria tritici; 0.1 ppm, 100-0 scale
  Activity (%) B: 50%
Septoria tritici; 0.1 ppm, 72 hrs, 100=no disease growth
  Activity (%) B: 50%
Septoria tritici; 0.3 ppm, 100-0 scale
  Activity (%) B: 70%
Septoria tritici; 0.3 ppm, 72 hrs
  Activity (%) B: 70%

## O=C(Nc1ccccc1F)c1ccc(-c2noc(C(F)(F)F)n2)cc1 [N-(2-fluorophenyl)-4-[5-(trifluoromethyl)-1,2,4-oxadiazol-3-yl]benzamide]
Septoria glycines; Septoria glycines
  inhibition at 10 ppm: 0%
  inhibition at 20 ppm: 0%
Septoria glycines; Septoria glycines, 100-0 scale
  inhibition at 10 ppm: 0%
  inhibition at 20 ppm: 0%
Septoria tritici; Zymoseptoria tritici, 72 h, 10 ppm
  inhibition at 10 ppm: 0%
Septoria tritici; Zymoseptoria tritici, 72 h, 20 ppm
  inhibition at 20 ppm: 0%

## Mancozeb
Phakopsora pachyrhizi; applied alone, 225 g/ha
  Observed Activity (% of untreated) against Phakopsora pachyrhizi: 20%
Phakopsora pachyrhizi; applied alone, 450 g/ha
  Observed Activity (% of untreated) against Phakopsora pachyrhizi: 34%

## OC(Cn1cncn1)(c1ccc(F)cc1)c1ccccc1F (stereo not drawn) [flutriafol]
Septoria glycines; 0.1 ppm
  Activity (%) B: 20%
Septoria glycines; 0.3 ppm
  Activity (%) B: 70%
